System: 777334-354-R2-J4-PDC tumor spheroids with HUVEC/MSC, viability
Assay: Anticancer human tumor 777334-354-R2-J4-PDC patient-derived pancreatic adenocarcinoma cell line growth inhibition [GQUAD]
Conditions: for IC50: curve of first compound; for viability, T/C: stronger effect = lower value
From the text: DNA G-quadruplex Stabilizer Agents in Combinations in Complex Spheroids
A high-throughput screen of multi-cell type tumor spheroids was designed to identify active combinations of DNA G-quadruplex stabilizer agents and targeted small molecules. Complex spheroids include a stromal component modeled by human endothelial cells (HUVEC) and fibroblasts modeled by human mesenchymal stem cells (MSCs). The concentration ranges selected for each drug and investigational agent were based upon clinically achievable concentrations if the clinical Cmax of the agent was known.
Compounds. The drugs and investigational agents: pidnarulex (CX-5461; NSC782164), APTO-253 (NSC789042), BRACO-19 (NSC847499), peposertib (NSC802822), ceralasertib (NSC780249), elimusertib (NSC800525), camonsertib (NSC841442), AZD-1390 (NSC803789), olaparib (NSC753686), talazoparib (NSC767125), ART-558 (NSC835418), sotorasib (NSC818433), MRTX-1133 (NSC836407), SN-38 (NSC673596), topotecan (NSC609699), etoposide (NSC141540), doxorubicin (NSC123127), gemcitabine (NSC613327), 5-fluorouracil (NSC19893), paclitaxel (NSC125973), vemurafenib (NSC761431), panobinostat (NSC761190), R-306465 (JNJ-16241199; NSC773264), adavosertib (NSC754352), TP-3654 (NSC805149), carboplatin (NSC241240), KSQ-4279 (NSC840948), and staurosporine (NSC755774) were obtained from the National Cancer Institute (NCI) Developmental Therapeutics Program Chemical Repository (34). The FDA-approved anticancer drug set is available from the NCI Developmental Therapeutics Program. […] The stock solutions were prepared in dimethyl sulfoxide (DMSO, Sigma-Aldrich, St. Louis, MO, cat. D2650) at 800-fold the tested concentration and stored at -70 degrees C prior to their use. All drugs and investigational agents were tested over a range starting from a high concentration at or near the clinical Cmax and decreasing in half-log increments. If the clinical Cmax for an agent had not been determined, the highest concentration tested was 10 microM.
2.3 Cell Culture. All cells were maintained in an incubator at 37 degrees C and 5% CO2 with 95% humidity. The PDC lines were cultured according to standard operating procedures established by the NCI PDMR. All PDCs were thawed and cultured in Matrigel-coated flasks prepared with a working solution of 1X Ham's F-12 nutrient mix, without supplementation (Invitrogen, cat. 11765054), 100 U/mL penicillin-streptomycin (Invitrogen, cat. 15140122), and 2.5% Matrigel (Corning Inc., cat. 354248) for the first three passages. The 857933-349-R-J2-PDC line was cultured in 6C/Colon 1B media, which includes advanced DMEM/F-12 (Thermo Fisher Scientific, cat. 12634028), 10 mM HEPES (Thermo Fisher Scientific, cat. 15630080), 1X GlutaMAX supplement (Thermo Fisher Scientific, cat. 35050061), 0.1 mg/mL primocin (InvivoGen, cat. ant-pm-2), 10% defined fetal bovine serum, heat inactivated (HyClone Laboratories Inc., cat. SH30070.03HI), 50% L-WRN conditioned media (ATCC, cat. CRL-3276), 1.25 mM N-Acetyl-L-cysteine (Sigma-Aldrich, cat. A9165), 10 mM nicotinamide (Sigma-Aldrich, cat. N0636), 1X B-27 supplement (Thermo Fisher Scientific, cat. 17504044), 1X N-2 supplement (Thermo Fisher Scientific, cat. 17502048), 10 microM Y-27632 dihydrochloride (Tocris Bioscience, cat. 1254), and 50 ng/mL human EGF recombinant protein (Thermo Fisher Scientific, cat. PHG0311). The 485176-168-R4-J1-PDC line was cultured in Panc media, which includes all 6C/Colon 1B media components plus 100 ng/mL human FGF-10 (Thermo Fisher Scientific, cat. 100-26), 500 nM SB-431542 (Selleckchem, cat. S1067), and gastrin (Tocris, cat. 3006).
[…]

[1] = second compound 0.0316 µM, first compound 0.0316 µM
[2] = second compound 0.0316 µM, first compound 0.1 µM
[3] = second compound 0.0316 µM, first compound 0.316 µM
[4] = second compound 0.0316 µM, first compound 1 µM
[5] = second compound 0.0316 µM, first compound 3.16 µM
[6] = second compound 0.0316 µM, first compound 10 µM
[7] = second compound 0.1 µM, first compound 0.0316 µM
[8] = second compound 0.1 µM, first compound 0.1 µM
[9] = second compound 0.1 µM, first compound 0.316 µM
[10] = second compound 0.1 µM, first compound 1 µM
[11] = second compound 0.1 µM, first compound 3.16 µM
[12] = second compound 0.1 µM, first compound 10 µM
[13] = second compound 0.316 µM, first compound 0.0316 µM
[14] = second compound 0.316 µM, first compound 0.1 µM
[15] = second compound 0.316 µM, first compound 0.316 µM
[16] = second compound 0.316 µM, first compound 1 µM
[17] = second compound 0.316 µM, first compound 3.16 µM
[18] = second compound 0.316 µM, first compound 10 µM
[19] = second compound 1 µM, first compound 0.0316 µM
[20] = second compound 1 µM, first compound 0.1 µM
[21] = second compound 1 µM, first compound 0.316 µM
[22] = second compound 1 µM, first compound 1 µM
[23] = second compound 1 µM, first compound 3.16 µM
[24] = second compound 1 µM, first compound 10 µM
[25] = second compound 3.16 µM, first compound 0.0316 µM
[26] = second compound 3.16 µM, first compound 0.1 µM
[27] = second compound 3.16 µM, first compound 0.316 µM
[28] = second compound 3.16 µM, first compound 1 µM
[29] = second compound 3.16 µM, first compound 3.16 µM
[30] = second compound 3.16 µM, first compound 10 µM
[31] = second compound 10 µM, first compound 0.0316 µM
[32] = second compound 10 µM, first compound 0.1 µM
[33] = second compound 10 µM, first compound 0.316 µM
[34] = second compound 10 µM, first compound 1 µM
[35] = second compound 10 µM, first compound 3.16 µM
[36] = second compound 10 µM, first compound 10 µM
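Also: spheroids exposed to compounds for 7 days before readout.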

CC1COCCN1c1cc(-c2ccnn2C)c2ccnc(-c3ccn[nH]3)c2n1 (centres undefined) + CN(C)c1ccc(Nc2c3ccc(NC(=O)CCN4CCCC4)cc3nc3cc(NC(=O)CCN4CCCC4)ccc23)cc1
IC50 (second compound 0.0316 µM): 1270 nM | IC50 (second compound 0.1 µM): 1060 nM | IC50 (second compound 0.316 µM): 789 nM | IC50 (second compound 1 µM): 654 nM | IC50 (second compound 3.16 µM): 590 nM | IC50 (second compound 10 µM): 555 nM | viability, T/C [1]: 103% | viability, T/C [2]: 84.2% | viability, T/C [3]: 61.7% | viability, T/C [4]: 53.9% | viability, T/C [5]: 44.4% | viability, T/C [6]: 29% | viability, T/C [7]: 106% | viability, T/C [8]: 77% | viability, T/C [9]: 66% | viability, T/C [10]: 53.5% | viability, T/C [11]: 40.1% | viability, T/C [12]: 30.6% | viability, T/C [13]: 93.9% | viability, T/C [14]: 78% | viability, T/C [15]: 59.4% | viability, T/C [16]: 46.6% | viability, T/C [17]: 38.4% | viability, T/C [18]: 27.5% | viability, T/C [19]: 90.8% | viability, T/C [20]: 77.1% | viability, T/C [21]: 51.7% | viability, T/C [22]: 48.2% | viability, T/C [23]: 37.2% | viability, T/C [24]: 27.2% | viability, T/C [25]: 87.4% | viability, T/C [26]: 65.2% | viability, T/C [27]: 53.9% | viability, T/C [28]: 46.9% | viability, T/C [29]: 38.5% | viability, T/C [30]: 22.4% | viability, T/C [31]: 77.2% | viability, T/C [32]: 66.6% | viability, T/C [33]: 57.1% | viability, T/C [34]: 42.1% | viability, T/C [35]: 32.4% | viability, T/C [36]: 17.7%

CC1COCCN1c1cc(C2(O)CC3CCC(C2)O3)c2cnn(-c3ccn[nH]3)c2n1 (centres undefined) + CN(C)c1ccc(Nc2c3ccc(NC(=O)CCN4CCCC4)cc3nc3cc(NC(=O)CCN4CCCC4)ccc23)cc1
IC50 (second compound 0.0316 µM): 599 nM | IC50 (second compound 0.1 µM): 644 nM | IC50 (second compound 0.316 µM): 599 nM | IC50 (second compound 1 µM): 348 nM | IC50 (second compound 3.16 µM): 296 nM | IC50 (second compound 10 µM): 189 nM | viability, T/C [1]: 96.5% | viability, T/C [2]: 79.1% | viability, T/C [3]: 59.8% | viability, T/C [4]: 40.5% | viability, T/C [5]: 32% | viability, T/C [6]: 20.4% | viability, T/C [7]: 105% | viability, T/C [8]: 80.3% | viability, T/C [9]: 58.8% | viability, T/C [10]: 43.3% | viability, T/C [11]: 33.9% | viability, T/C [12]: 20% | viability, T/C [13]: 96.3% | viability, T/C [14]: 75.4% | viability, T/C [15]: 53.2% | viability, T/C [16]: 45.8% | viability, T/C [17]: 33.4% | viability, T/C [18]: 19% | viability, T/C [19]: 83% | viability, T/C [20]: 63% | viability, T/C [21]: 53% | viability, T/C [22]: 36% | viability, T/C [23]: 31.4% | viability, T/C [24]: 19.1% | viability, T/C [25]: 87.9% | viability, T/C [26]: 68.8% | viability, T/C [27]: 46.7% | viability, T/C [28]: 34.7% | viability, T/C [29]: 26.9% | viability, T/C [30]: 16.5% | viability, T/C [31]: 74.7% | viability, T/C [32]: 56.1% | viability, T/C [33]: 45.8% | viability, T/C [34]: 29.7% | viability, T/C [35]: 25.5% | viability, T/C [36]: 16%

— PubChem BioAssay AID2060499 (Molecular Pharmacology Branch, DTP, NCI, 2025)
